Laboratory results: US20190269705A1, “METHODS AND MATERIALS FOR TREATING GRAFT VERSUS HOST DISEASE” (Regents of the University of Minnesota, priority 2017, published 2019)
Entries after “also recorded” stand apart in the source; their conditions may differ.

What was measured:
Th1 cells = assay: CD4 T cells in Th1 skewing conditions, flow cytometry
Th17 cells = assay: CD4 T cells in Th17 skewing conditions, flow cytometry
cGVHD mice = assay: In vivo chronic graft versus host disease (cGVHD) treatment; set-up: species or system mouse; details: treatment Day 28-56 after transplant; for pulmonary function: DON 1.6 mg/kg EOD IP, metformin 150 mg/kg daily IP
Protocol: Induction of Graft vs Host Disease (cGVHD) was performed as described elsewhere (see, e.g., Panoskaltsis-Mortari et al., 2007 Am J Respir Crit Care Med. 176(7):713-723). Briefly, mice were lethally irradiated the day before bone marrow (BM) transplant. Mice were dosed with cyclophosphamide (Cytoxan, Bristol Myers Squibb, Seattle Wash.) at 120 mg/kg/day on days −3 and −2. Recipient irradiated mice were transplanted via caudal vein with 10×10^6 T-cell depleted allogeneic marrow with 73.5×10^3 purified splenic T cells from WT or GLS KO mice, or control (no CD4+ T cells). Mice were assessed for lung elasticity, resistance, and compliance at Day 28 by whole body plethysmography using the Flexivent system (Scireq, Montreal, PQ, Canada). Histological assessment of GVHD was assessed as described elsewhere (see, e.g., Blazar et al., 1998 Blood 92(10):3949-3959).
6-Diazo-5-Oxo-L-Norleucine (DON) was administered to mice conditioned with cyclophosphamide (Cytoxan, Bristol Myers Squibb, Seattle Wash.) and total body irradiation.
To determine if inhibiting GLS can improve cGVHD, DON (with or without metformin) was administered to mice that were transplanted with WT T cell depleted bone marrow with WT purified splenic T cells beginning on day 28 after transplant.

stimulated T cells = assay: Oxygen Consumption Rate (Seahorse) of stimulated CD4 T cells; type: cell-based, mouse; details: CD4 cells stimulated on CD3/CD28; 1 μM CB839, 5 μM UK5099 injected separately or in combination
Protocol: Experiments were carried out on Agilent Seahorse XF96 bioanalyzer (Agilent). Briefly, wild type CD4+ cells were isolated as previous and activated for 3 days on CD3/CD28 as previously described, or skewed to Th1 and Th17 subsets as described above. T cells were spun onto XF96 Cell-Tak (BD Bioscience, Cat #: 354240) coated plates and rested in Seahorse XF RPMI 1640 media supplemented with glutamine, sodium pyruvate, and glucose. For immediate metabolic response, CB839 and UK5099 were injected separately or in combination, and OCR and ECAR measured.
Experiments were carried out on Agilent Seahorse XF96 bioanalyzer (Agilent). Briefly, wild type CD4+ cells were isolated as previous and activated for 3 days on αCD3/CD28 coated plates as previously described, or skewed to Th1 and Th17 subsets as described above. T cells were isolated and spun onto XF96 Cell-Tak (BD Bioscience, Cat #: 354240) coated plates and rested in Seahorse XF RPMI 1640 media supplemented with glutamine, sodium pyruvate, and glucose. For immediate metabolic response, 1 μM CB839 and 5 μM UK5099 (Cat #: PZ0160-5MG) were injected separately or in combination, and OCR and ECAR measured. For activation response, 1 uM CB839 was injected into IL-7 maintained naïve CD4+ T cells in seahorse medium and allowed to incubate for 20 minutes, followed by soluble αCD3/CD28 injection.

[1] = Th1, CB839 + 1.5 mM cell-permeable α-KG analog
[2] = Th17, CB839 + cell-permeable α-KG analog

COC(=O)CCC(=O)C(=O)OC [DMaKG, dimethyl-2-oxoglutarate]
IFNγ production of CB839-treated Th1 cells (Th1 cells; [1]): rectified
Tbet expression of CB839-treated Th1 cells (Th1 cells; [1]): rectified
IFNγ production of CB839-treated Th1 cells (Th1 cells; Th1, CB839 + 1.5 mM cell-permeable α-KG analog, listed as DM2OG): reduced IFNγ production of CB839-treated to control levels
cytokine production in Th1 cells, by itself (Th1 cells; Th1, α-KG analog alone): did not reduce cytokine production
IL17 production of CB839-treated Th17 cells (Th17 cells; [2]): unchanged or further decreased
RORγt of CB839-treated Th17 cells (Th17 cells; [2]): unchanged or further decreased

[N-]=[N+]=CC(=O)CC[C@H](N)C(=O)O [DON, 6-Diazo-5-Oxo-L-Norleucine]
GC B cell frequency (cGVHD mice): decreased GC B cell frequency; also recorded: decrease GC B cell frequencies; also recorded: reduced GC B cells
TFH frequency (cGVHD mice): increased TFH frequency
TFR frequencies (cGVHD mice): increased TFR frequencies
TFR:TFH ratios (cGVHD mice): improved TFR:TFH ratios
percentage of lymphocytes (cGVHD mice): reduced the percentage of lymphocytes; also recorded: reduces lymphocytes
pulmonary function (cGVHD mice): improve pulmonary functions

CCOC(=O)CCNc1cc(N2CCc3ccccc3CC2)nc(-c2ccccn2)n1 [GSKJ4]
cytokine production (Th1 cells; Th1, day five, JMJD3 inhibitor): increased cytokine production
cytokine production (Th17 cells; Th17, day five, JMJD3 inhibitor): increased cytokine production in Th1 but not Th17 cells

CC(=O)N[C@@H](CS)C(=O)O [NAC, N-acetyl cysteine]
IFNγ secretion (Th1 cells; Th1, NAC alone): decreasing IFNγ secretion
production of IFNγ (Th1 cells; Th1, NAC combined with CB839): did not, however, increase
H3K27 trimethylation (Th1 cells; Th1 cells + NAC): no effect
H3K27 trimethylation (Th17 cells; GLS-deficient (CB839) Th17 cells + NAC): restored
expression of IL17 (Th17 cells; Th17, NAC alone): modestly reduced
expression of RORγt (Th17 cells; Th17, NAC alone): modestly reduced
expression of RORγt (Th17 cells; Th17, NAC combined with CB839): partially restored to control levels
production of IL17 (Th17 cells; Th17, NAC combined with CB839): partially restored to control levels

N#C/C(=C\c1cn(-c2ccccc2)c2ccccc12)C(=O)O [UK5099]
oxygen consumption (T cell respiration) (stimulated T cells): neither UK5099 nor CB839 were sufficient on their own to reduce T cell respiration; also recorded: neither UK5099 nor CB839 were sufficient to reduce T cell respiration alone

CN(C)C(=N)N=C(N)N [metformin]
pulmonary function (cGVHD mice): improved pulmonary function

CO[C@H]1C[C@@H]2CC[C@@H](C)[C@@](O)(O2)C(=O)C(=O)N2CCCC[C@H]2C(=O)O[C@H]([C@H](C)C[C@@H]2CC[C@@H](O)[C@H](OC)C2)CC(=O)[C@H](C)/C=C(\C)[C@@H](O)[C@@H](OC)C(=O)[C@H](C)C[C@H](C)/C=C/C=C/C=C/1C [rapamycin]
effect on control Th1 cells (Th1 cells; rapamycin added on day 3 after activation): no effect
